Measured values from patent US8420820B2, “Pyrrolopyridinylpyrimidin-2-ylamine derivatives” (Merck Patent GmbH, priority 2008, dated 2013).

Key:
[1] = molecular target: T1, PDK1 (Homo sapiens, UniProt O15530); experiment: Test for the inhibition of PDK1 (flashplate, 33P-ATP); format: biochemical; conditions: His6-PDK1 3.4 nM, 4 μM ATP, 30° C., 60 min
T1 construct: His6 (N)
Procedure: The experimental batches are carried out in a flashplate system with 384 wells/microtitration plate.
In each case, the PDK1 sample His6-PDK1(SEQ ID NO: 2)(1-50)(3.4 nM), the PDK1 substrate biotin-bA-bA-[…] (SEQ ID NO: 3) (400 nM), 4 μM ATP (with 0.2 μCi of ^33P-ATP/well) and the test substance in 50 μl of conventional experimental solution per well are incubated at 30° C. for 60 min. The test substances are employed in corresponding concentrations (if desired in a dilution series). The control is carried out without test substance. The reaction is stopped using standard methods and washed. The activity of the kinase is measured via the incorporated radioactivity in top count. In order to determine the non-specific kinase reaction (blank value), the experimental batches are carried out in the presence of 100 nM staurosporin.
The radioactivity (decompositions per minute) of the blank value (no use of test substance in the presence of staurosporin) is subtracted from all other radioactivity values. The controls (kinase activity without test substance) are set equal to 100 percent and all other radioactivity values (after subtracting the blank value) are expressed set in relation thereto (for example in % of the control).
IC50 values (50% inhibition) are determined with the aid of statistics programmes, such as, for example, RS1.

[2] = tested on: PDK1 kinase activity in PC3 cells (phospho-T308-PKB); experiment: Cellular testing of PDK1 kinase inhibitors in PC3 cells (Luminex, phospho-T308-PKB); format: cell-based; conditions: Homo sapiens, PC-3, 0.5 h, 30 min with test substance, serum-free, phospho-T308-PKB by Luminex, read-out: IC50 [PC3 P-PKB Thr308]
Procedure: Method for the Cellular Testing of PDK1 Kinase Inhibitors in PC3 Cells.
The cellular assay for the determination of the PDK1 kinase activity is carried out as a Luminex assay in the 96-well format. PC3 cells are sown at 20,000 cells per well in 100 μl of medium (45% of […]/45% of Ham's F12/10% of FCS) and incubated on the following day for 30 min with a serial dilution of the test substance (7 concentrations) under serum-free conditions. The cells are subsequently lysed using 90 μl of lysis buffer (20 mM tris/HCl pH 8.0, 150 mM NaCl, 1% of NP40, 10% of glycerol, 1% of phosphatase inhibitor I, 1% of phosphatase inhibitor II, 0.1% of protease inhibitor cocktail III, 0.01% of benzonase) per well, and the lysates are separated off from insoluble cell constituents by means of centrifugation through a 96-well filter plate (0.65 μm). The lysates are incubated overnight at 4° C. with shaking with Luminex beads to which an anti-total PKB antibody is coupled. The detection is carried out on the following day by addition of a phospho-T308-PKB antibody and a species-specific […] secondary antibody. The detection of phospho-T308-PKB is carried out by measurement in a Luminex100 instrument by determination of 100 events per cavity in a measurement time of 60 sec. As pharmacological blank, the signals obtained from cells which have been treated with 10 μM staurosporin are subtracted from all other batches. The control value used for maximum phosphorylation of PKB on T308 are the signals from cells which have only been treated with the solvent (0.3% of DMSO). The values of the batches treated with test substance are calculated therefrom as percentage of control, and IC50 values are determined by means of RS1.

T1 sequence (O15530 51-556): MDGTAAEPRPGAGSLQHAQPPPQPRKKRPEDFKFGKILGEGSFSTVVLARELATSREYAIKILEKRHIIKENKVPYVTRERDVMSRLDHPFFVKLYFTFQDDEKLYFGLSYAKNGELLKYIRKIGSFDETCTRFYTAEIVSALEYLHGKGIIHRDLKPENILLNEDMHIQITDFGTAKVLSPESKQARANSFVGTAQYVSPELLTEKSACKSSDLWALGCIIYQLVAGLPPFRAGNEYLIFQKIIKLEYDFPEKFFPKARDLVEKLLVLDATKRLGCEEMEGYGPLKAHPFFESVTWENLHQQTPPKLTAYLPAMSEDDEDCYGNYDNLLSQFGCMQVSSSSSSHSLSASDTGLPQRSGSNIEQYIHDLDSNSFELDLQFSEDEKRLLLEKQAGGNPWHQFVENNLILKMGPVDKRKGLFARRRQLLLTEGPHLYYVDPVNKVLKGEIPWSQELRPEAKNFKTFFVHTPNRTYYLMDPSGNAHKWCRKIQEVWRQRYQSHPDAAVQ

SMILES | IC50 [1] [nM] | IC50 [2] [nM]
CCc1cc(-c2c[nH]c3ncc(-c4cnn(CCN(C)C)c4)cc23)nc(N)n1 [Compound A1, 4-{5-[1-(2-dimethylaminoethyl)-1H-pyrazol-4-yl]-1H-pyrrolo[2,3-b]pyridin-3-yl}-6-ethylpyrimidin-2-ylamine] | 10 to 1000 | 10000 to 20000
CCc1cc(-c2c[nH]c3ncc(-c4cnn(CC5CCNC5)c4)cc23)nc(N)n1 (centres unmarked) [Compound A9] | 10 to 1000 | 10000 to 20000
CCc1cc(-c2c[nH]c3ncc(-c4ccc(N5CCNCC5)nc4)cc23)nc(N)n1 [Compound A10, 4-ethyl-6-[5-(6-piperazin-1-ylpyridin-3-yl)-1H-pyrrolo[2,3-b]pyridin-3-yl]pyrimidin-2-ylamine] | 10 to 1000 | 1000 to 10000
CCc1cc(-c2c[nH]c3ncc(-c4cccc(C(=O)NCCN(C)C)c4)cc23)nc(N)n1 [Compound A11, 3-[3-(2-amino-6-ethylpyrimidin-4-yl)-1H-pyrrolo-[2,3-b]pyridin-5-yl]-N-(2-dimethylaminoethyl)benzamide] | 10 to 1000 | 10000 to 20000
CCc1cc(-c2c[nH]c3ncc(-c4cnn(CC(=O)N5CCN(C)CC5)c4)cc23)nc(N)n1 [Compound A29, 2-{4-[3-(2-Amino-6-ethylpyrimidin-4-yl)-1H-pyrrolo[2,3-b]pyridin-5-yl]pyrazol-1-yl}-1-(4-methylpiperazin-1-yl)ethanone] | 10 to 1000 | 10000 to 20000
CCc1cc(-c2c[nH]c3ncc(-c4cnn(CC(=O)NC5CCN(C)CC5)c4)cc23)nc(N)n1 [Compound A30, 2-{4-[3-(2-Amino-6-ethylpyrimidin-4-yl)-1H-pyrrolo[2,3-b]pyridin-5-yl]pyrazol-1-yl}-N-(1-methylpiperidin-4-yl)acetamide] | 10 to 1000 | 10000 to 20000
CCc1cc(-c2c[nH]c3ncc(-c4cnn(CC(=O)O)c4)cc23)nc(N)n1 [Compound A31, {4-[3-(2-Amino-6-ethylpyrimidin-4-yl)-1H-pyrrolo[2,3-b]pyridin-5-yl]pyrazol-1-yl}acetylic acid] | 10 to 1000 | 10000 to 20000
CCc1cc(-c2c[nH]c3ncc(-c4cnn(CC(=O)N5CCOCC5)c4)cc23)nc(N)n1 [Compound A32, 2-{4-[3-(2-Amino-6-ethylpyrimidin-4-yl)-1H-pyrrolo[2,3-b]pyridin-5-yl]pyrazol-1-yl}-1-morpholin-4-ylethanone] | 10 to 1000 | 10000 to 20000
Nc1nc(CCCCO)cc(-c2c[nH]c3ncccc23)n1 [Compound A45, 4-[2-Amino-6-(1H-pyrrolo[2,3-b]pyridin-3-yl)pyrimidin-4-yl]butan-1-ol] | 1000 to 10000 | 
CCc1cc(-c2c[nH]c3ncc(-c4cnn(C(C)C)c4)cc23)nc(NC)n1 [Compound A60, {4-Ethyl-6-[5-(1-isopropyl-1H-pyrazol-4-yl)-1H-pyrrolo[2,3-b]pyridin-3-yl]-pyrimidin-2-yl}methylamine] | 10 to 1000 | 
CCc1cc(-c2c[nH]c3ncc(-c4cnn(CCN(C)C)c4)cc23)nc(NC)n1 [Compound A61, (4-{5-[1-(2-Dimethylaminoethyl)-1H-pyrazol-4-yl]-1H-pyrrolo[2,3-b]pyridin-3-yl}-6-ethylpyrimidin-2-yl)methylamine] | 10 to 1000 | 
CCc1cc(-c2c[nH]c3ncc(-c4cn[nH]c4)cc23)nc(NC)n1 [Compound A62, {4-Ethyl-6-[5-(1H-pyrazol-4-yl)-1H-pyrrolo[2,3-b]pyridin-3-yl]pyrimidin-2-yl}-methylamine] | 10 to 1000 | 
CCc1cc(-c2c[nH]c3ncc(-c4cnn(C)c4)cc23)nc(NC)n1 [Compound A63, {4-Ethyl-6-[5-(1-methyl-1H-pyrazol-4-yl)-1H-pyrrolo[2,3-b]pyridin-3-yl]-pyrimidin-2-yl}methylamine] | 10 to 1000 | 
CCc1cc(-c2c[nH]c3ncc(-c4cnn(C5CCNCC5)c4)cc23)nc(NC)n1 [Compound A64, {4-Ethyl-6-[5-(1-piperidin-4-yl-1H-pyrazol-4-yl)-1H-pyrrolo[2,3-b]pyridin-3-yl]pyrimidin-2-yl}methylamine] | 10 to 1000 | 
CCc1cc(-c2c[nH]c3ncc(-c4cnn(CC(=O)N5CCCCC5)c4)cc23)nc(NC)n1 [Compound A65, 2-{4-[3-(6-Ethyl-2-methylaminopyrimidin-4-yl)-1H-pyrrolo[2,3-b]pyridin-5-yl]-pyrazol-1-yl}-1-piperidin-1-ylethanone] | 10 to 1000 | 

The remaining lines, values ahead:

IC50 [1] [nM] | IC50 [2] [nM] | SMILES
10 to 1000 |  | CCc1cc(-c2c[nH]c3ncc(-c4cnn(CC(=O)N5CCCC5)c4)cc23)nc(NC)n1 [Compound A66, 2-{4-[3-(6-Ethyl-2-methylaminopyrimidin-4-yl)-1H-pyrrolo[2,3-b]pyridin-5-yl]-pyrazol-1-yl}-1-pyrrolidin-1-ylethanone]
10 to 1000 |  | CCCCc1cc(-c2c[nH]c3ncc(-c4cnn(CCO)c4)cc23)nc(NC)n1 [Compound A67, 2-{4-[3-(6-Butyl-2-methylaminopyrimidin-4-yl)-1H-pyrrolo[2,3-b]pyridin-5-yl]-pyrazol-1-yl}ethanol]
10 to 1000 |  | CCc1cc(-c2c[nH]c3ncc(-c4cnn(CCO)c4)cc23)nc(NC)n1 [Compound A68, 2-{4-[3-(6-Ethyl-2-methylaminopyrimidin-4-yl)-1H-pyrrolo[2,3-b]pyridin-5-yl]-pyrazol-1-yl}ethanol]
10 to 1000 |  | CCCCc1cc(-c2c[nH]c3ncc(-c4cnn(C5CCNCC5)c4)cc23)nc(NC)n1 [Compound A70, {4-Butyl-6-[5-(1-piperidin-4-yl-1H-pyrazol-4-yl)-1H-pyrrolo[2,3-b]pyridin-3-yl]pyrimidin-2-yl}methylamine]
10 to 1000 |  | CCCCc1cc(-c2c[nH]c3ncc(-c4cnn(C5CCN(C)CC5)c4)cc23)nc(NC)n1 [Compound A71, (4-Butyl-6-{5-[1-(1-methylpiperidin-4-yl)-1H-pyrazol-4-yl]-1H-pyrrolo[2,3-b]-pyridin-3-yl}pyrimidin-2-yl)methylamine]
10 to 1000 |  | CCc1cc(-c2c[nH]c3ncc(-c4cnn(C(C)C(=O)Nc5ccc6[nH]ccc6c5)c4)cc23)nc(NC)n1 (centres unmarked) [Compound A72, 2-{4-[3-(6-Ethyl-2-methylaminopyrimidin-4-yl)-1H-pyrrolo[2,3-b]pyridin-5-yl]-pyrazol-1-yl}-N-(1H-indol-5-yl)propionamide]
10 to 1000 |  | CCc1cc(-c2c[nH]c3ncc(-c4cnn(CC(=O)N5CCCc6ccccc65)c4)cc23)nc(NC)n1 [Compound A73, 1-(3,4-Dihydro-2H-quinolin-1-yl)-2-{4-[3-(6-ethyl-2-methylaminopyrimidin-4-yl)-1H-pyrrolo[2,3-b]pyridin-5-yl]pyrazol-1-yl}ethanone]
1000 to 10000 |  | COc1nc(Cc2ccccc2)cc(-c2c[nH]c3ncc(-c4cnn(C(C)C)c4)cc23)n1 [Compound A74, 3-(6-Benzyl-2-methoxypyrimidin-4-yl)-5-(1-isopropyl-1H-pyrazol-4-yl)-1H-pyrrolo[2,3-b]pyridine]
10 to 1000 |  | CCc1cc(-c2c[nH]c3ncc(-c4cnn(C(C)C)c4)cc23)nc(OC)n1 [Compound A75, 3-(6-Ethyl-2-methoxypyrimidin-4-yl)-5-(1-isopropyl-1H-pyrazol-4-yl)-1H-pyrrolo[2,3-b]pyridine]
1000 to 10000 |  | Nc1nc(CCC(=O)N2CCOCC2)cc(-c2c[nH]c3ncccc23)n1 [Compound A82, 3-[2-Amino-6-(1H-pyrrolo[2,3-b]pyridin-3-yl)pyrimidin-4-yl]-1-morpholin-4-ylpropan-1-one]
1000 to 10000 |  | CN(C)CCNC(=O)CCc1cc(-c2c[nH]c3ncccc23)nc(N)n1 [Compound A83, 3-[2-Amino-6-(1H-pyrrolo[2,3-b]pyridin-3-yl)pyrimidin-4-yl]-N-(2-dimethylaminoethyl)propionamide]
10 to 1000 |  | CC(C)Cn1cc(-c2cnc3[nH]cc(-c4cc(CCCN)nc(N)n4)c3c2)cn1 [Compound A84, 4-(3-Aminopropyl)-6-[5-(1-isobutyl-1H-pyrazol-4-yl)-1H-pyrrolo[2,3-b]pyridin-3-yl]pyrimidin-2-ylamine]
